Data from US7781565B2 (priority 2006, dated 2010).
Entries after “also recorded” stand apart in the source; their conditions may differ.

system: NCI-60 cell lines; assay type: cell-based, human

Row | Substance | Cell Line (NCI-60 cell line the peptide and its motif are associated with) | Cell Line (NCI-60 cell line the peptide is associated with) | Cell Line with which the peptide (and its tripeptide motif) is associated | Cell Line the peptide is associated with (peptide recovered from phage library selection on this NCI-60 cell line)
1 | SVRVGSG | SK-MEL-28 Melanoma |  |  | 
2 | RDGRGAG |  | SF-295 CNS |  | 
3 | TAGSSRL |  |  | H322-Lung | 
4 | TEGTRGV |  |  |  | RXF393 Renal
5 | NSGSVVS |  |  |  | MDA-MB-231 Breast
6 | RAAVIHT |  | MALME-3M Melanoma |  | 
7 | WLLSSEI | PC3 Prostate |  |  | 
8 | AGSVTEQ |  |  |  | UO31 Renal
9 | GSITGGS | IGROV1 Ovarian |  |  | 
10 | RGSAQNF |  |  | RPMI-8226-Leukemia | 
11 | WQVSGVR |  | KM-12C Colon |  | 
12 | AKAGVSR |  |  |  | MCF-7 Breast
13 | GNGGARG | M14 Melanoma |  |  | 
14 | MVLRGSY |  | SNB-75 CNS |  | 
15 | TFRGAGV |  |  |  | MDA-MB-231 Breast
16 | TRDGVRW |  |  |  | RXF393 Renal
17 | AAYWGPS |  |  |  | A498 Renal
18 | PRGRLFD |  | HT-29 Colon |  | 
19 | ASAVSGR |  | HT-29 Colon |  | 
20 | VGSTRSS | SK-MEL-28 Melanoma |  |  | 
21 | EFAVAGR |  |  | SR Leukemia | 
22 | VRAAGRV |  |  | Hop-62-Lung | 
23 | CGEGLVV | DU-145 Prostate |  |  | 

Row | Substance | Cell Line (NCI-60 cell line the peptide and its motif are associated with) | Cell Line (NCI-60 cell line the peptide is associated with) | Cell Line with which the peptide (and its tripeptide motif) is associated | Cell Line the peptide is associated with (peptide recovered from phage library selection on this NCI-60 cell line)
24 | GRAVWMV |  | KM-12C Colon |  | 
25 | SGGGGLG |  | SF-268 CNS |  | 
26 | GSSACGA |  | U251 CNS |  | 
27 | NLRGSRS | SK-MEL-2 Melanoma |  |  | 
28 | CTAGSVS | IGROV1 Ovarian |  |  | 
29 | GGGRSGV |  |  | H226-Lung | 
30 | RAGGGAP |  |  |  | ACHN Renal
31 | RDGVRVG |  | LOX-IMVI Melanoma |  | 
32 | RGGSPPV |  |  |  | RXF393 Renal
33 | RWRSGRV |  | HT-29 Colon |  | 
34 | GSARGML |  |  | SR Leukemia | 
35 | TRVSGSG |  |  |  | BT-549 Breast
36 | SVGAVGG |  |  | A549-Lung | 
37 | SLRGSEG |  |  | Hop-92-Lung | 
38 | GSMHRVS |  | SF-295 CNS |  | 
39 | AGIARGG |  |  | Hop-92-Lung | 
40 | GRLVWGL |  | HCT-116 Colon |  | 
41 | NSFGLRY |  | COLO-205-Colon |  | 
42 | MVYSGVS | M14 Melanoma |  |  | 
43 | VRASSKR | OVCAR-5 Ovarian |  |  | 
44 | DGLVPVA | IGROV1 Ovarian |  |  | 
45 | SRGSYGS |  |  |  | MDA-MB-435-Breast
46 | GGRAIGA |  |  | Hop-92-Lung | 

Row | Substance | Cell Line (NCI-60 cell line the peptide and its motif are associated with) | Cell Line (NCI-60 cell line the peptide is associated with) | Cell Line with which the peptide (and its tripeptide motif) is associated | Cell Line the peptide is associated with (peptide recovered from phage library selection on this NCI-60 cell line)
47 | NWDARGR | M14 Melanoma |  |  | 
48 | HADVLVS | DU-145 Prostate |  |  | 
49 | NMGRGSL |  |  |  | ACHN Renal
50 | SGGLVLT |  |  | Hop-92-Lung | 
51 | SSVASLV |  | SNB-19 CNS; also recorded: SF-539 CNS |  | 
52 | TLVLGGS |  |  | Hop-92-Lung | 
53 | DTLRSQW |  | HCT-15 Colon |  | 
54 | RRVSCDL |  |  | Hop-62-Lung | 
55 | GWSASLG |  | HCT-116 Colon |  | 
56 | QLPGLLR |  | SNB-75 CNS |  | 
57 | LLRRGIG | SK-MEL-5 Melanoma |  |  | 
58 | PGAVPGA |  | HT-29 Colon |  | 
59 | HFIRGSV |  | HT-29 Colon |  | 
60 | RAVGYNA |  | MALME-3M Melanoma |  | 
61 | VPPSGGR |  |  |  | RXF393 Renal
62 | GGRCGAE |  |  |  | BT-549 Breast
63 | LRGGLVS |  |  | EKVX-Lung | 
64 | TGGSLGA |  |  | EKVX-Lung | 
65 | GRLWWHT |  |  | Hop-92-Lung | 
66 | DWGRSSF |  |  | A549-Lung | 
67 | FSLVSFV | SK-MEL-2 Melanoma |  |  | 
68 | HTRAVSE | OVCAR-8 Ovarian |  |  | 
69 | LRAGGSY | IGROV1 Ovarian |  |  | 

Row | Substance | Cell Line (NCI-60 cell line the peptide and its motif are associated with) | Cell Line (NCI-60 cell line the peptide is associated with) | Cell Line with which the peptide (and its tripeptide motif) is associated | Cell Line the peptide is associated with (peptide recovered from phage library selection on this NCI-60 cell line)
70 | LWGLGWL |  | HCC-2998-Colon |  | 
71 | GLWAAVL |  |  |  | TK-10 Renal
72 | RRVSLVA |  |  | CCRF-CEM Leukemia | 
73 | GGASLTQ |  | SF-295 CNS |  | 
74 | MLGRGSV |  |  |  | SN12C Renal
75 | GSSRPSI |  | HCT-15 Colon |  | 
76 | TFAGLAQ |  |  |  | BT-549 Breast
77 | RGSVASA |  | HT-29 Colon |  | 
78 | LLRPAHG | SK-MEL-2 Melanoma |  |  | 
79 | GLVGFTG |  |  | Hop-62-Lung | 
80 | VDGSGDD | DU-145 Prostate |  |  | 
81 | RSSIAPS |  |  | Molt-4-Leukemia | 
82 | VGLGNSA | SK-MEL-2 Melanoma |  |  | 
83 | LLNPARG |  |  |  | SN12C Renal
84 | NSQRSSV | UACC 257 Melanoma |  |  | 
85 | AGLTIGI |  | SNB-19 CNS; also recorded: SF-539 CNS |  | 
86 | GGGSWLI |  |  | EKVX-Lung | 
87 | IAASYRG |  | LOX-IMVI Melanoma |  | 
88 | TLTAAVF | UACC 257 Melanoma |  |  | 
89 | DENRAGL | DU-145 Prostate |  |  | 
90 | ADWGVLE |  | SNB-75 CNS |  | 
91 | SVHLVSG |  |  |  | HS 578 T Breast
92 | WRASAFT |  |  | SR Leukemia | 

Row | Substance | Cell Line (NCI-60 cell line the peptide and its motif are associated with) | Cell Line (NCI-60 cell line the peptide is associated with) | Cell Line with which the peptide (and its tripeptide motif) is associated | Cell Line the peptide is associated with (peptide recovered from phage library selection on this NCI-60 cell line)
93 | RLRLSSW |  |  |  | TK-10 Renal
94 | LAGRASE | OVCAR-4 Ovarian |  |  | 
95 | AASSWAV | M14 Melanoma |  |  | 
96 | AASLRGT | UACC62 Melanoma |  |  | 
97 | HAGLLVV |  |  |  | TK-10 Renal
98 | TFGKGGL |  |  | HL-60-Leukemia | 
99 | NYGSSFH |  |  | Hop-62-Lung | 
100 | FTRGAAS | SK-MEL-2 Melanoma |  |  | 
101 | RRGSGGL |  |  | H23-Lung | 
102 | THRNRSS |  |  | SR Leukemia | 
103 | REVPGLR |  | SNB-19 CNS; also recorded: SF-539 CNS |  | 
104 | LSERRGV |  | SF-295 CNS |  | 
105 | LLSSRRC | SK-MEL-2 Melanoma |  |  | 
106 | GAAASGY |  | SW620-Colon |  | 
107 | SRLSYRA | 786-0 Renal |  |  | 
108 | RPAGGRT | PC3 Prostate |  |  | 
109 | AGLGHEG |  |  | H23-Lung | 
110 | VWLRGST | M14 Melanoma |  |  | 
111 | LTGGLVF | DU-145 Prostate |  |  | 
112 | GVGGLSS |  |  |  | HS 578 T Breast
113 | LGGRADF |  |  | CCRF-CEM Leukemia | 
114 | HGLGSGT |  |  | RPMI-8226-Leukemia | 
115 | GRVRETP | UACC62 Melanoma |  |  | 

Row | Substance | Cell Line (NCI-60 cell line the peptide and its motif are associated with) | Cell Line (NCI-60 cell line the peptide is associated with) | Cell Line with which the peptide (and its tripeptide motif) is associated | Cell Line the peptide is associated with (peptide recovered from phage library selection on this NCI-60 cell line)
116 | PGFMAGS | UACC62 Melanoma |  |  | 
117 | VRAVCLM |  | SNB-75 CNS |  | 
118 | SGPAGSF | OVCAR-4 Ovarian |  |  | 
119 | DWWAGVR |  |  | CCRF-CEM Leukemia | 
120 | RGSFGLG |  |  |  | T-47D Breast
121 | PLRVDNL |  |  | H23-Lung | 
122 | GRSSGME |  | HT-29 Colon |  | 
123 | GTHSGLR | SK-MEL-2 Melanoma |  |  | 
124 | RKGSGTA |  |  |  | BT-549 Breast
125 | RIDAGGG |  | SW620-Colon |  | 
126 | FVGSRGV |  | LOX-IMVI Melanoma |  | 
127 | FLRSLSL | SK-MEL-5 Melanoma |  |  | 
128 | SRYWLRS |  |  | H522-Lung | 
129 | SLVSERA |  |  |  | HS 578 T Breast
130 | AAVFVRS |  |  | K-562-Leukemia | 
131 | SLGLRNQ |  |  | CCRF-CEM Leukemia | 
132 | LRVGXPG |  |  |  | NCI/ADR-RES Breast
133 | ATGRVLG |  |  | Molt-4-Leukemia | 
134 | LLSRAQA |  |  |  | BT-549 Breast
